Measured values reported in publication PMC6430017, “Structural and chemical insights into the covalent-allosteric inhibition of the protein kinase Akt” (Chemical Science, 2019).

Experiments:
Test in all cases: SelectScreen Z'LYTE kinase profiling
Format in all cases: biochemical
Details in all cases: ATP at apparent KM
[1] = biological target: MAPKAPK2 (Homo sapiens, UniProt P49137)
Description: (§1) protein kinases at a compound concentration of 1 µM. Measurements were performed in duplicates
(§2) and at the particular apparent ATP KM of each individual kinase employing the activity based Z’LYTE®
(§3) kinase assay of the SelectScreen® Kinase Profiling Services (ThermoFisher Scientific).
(§4) kinases at a compound concentration of 1 µM. Measurements were performed in duplicates and at
(§5) the particular apparent ATP KM of each individual kinase employing the activity based Z’LYTE® kinase
(§6) assay of the SelectScreen® Kinase Profiling Services (ThermoFisher Scientific).

[2] = biological target: PLK1 (Homo sapiens, UniProt P53350)
[3] = biological target: NTRK2 (TRKB) (Homo sapiens, UniProt Q16620)
Description: as §1, §2, §3, §4, §5, §6

[4] = biological target: PRKACA (PKA) (Homo sapiens, UniProt P17612)
Description: as §1, §2, §3, §4, §5, §6

[5] = biological target: CDK2/cyclin A (Homo sapiens, UniProt P24941)
Description: as §1, §2, §3, §4, §5, §6

[6] = biological target: RPS6KA4 (MSK2) (Homo sapiens, UniProt O75676)
RPS6KA4 (MSK2), sequence (O75676 whole entry): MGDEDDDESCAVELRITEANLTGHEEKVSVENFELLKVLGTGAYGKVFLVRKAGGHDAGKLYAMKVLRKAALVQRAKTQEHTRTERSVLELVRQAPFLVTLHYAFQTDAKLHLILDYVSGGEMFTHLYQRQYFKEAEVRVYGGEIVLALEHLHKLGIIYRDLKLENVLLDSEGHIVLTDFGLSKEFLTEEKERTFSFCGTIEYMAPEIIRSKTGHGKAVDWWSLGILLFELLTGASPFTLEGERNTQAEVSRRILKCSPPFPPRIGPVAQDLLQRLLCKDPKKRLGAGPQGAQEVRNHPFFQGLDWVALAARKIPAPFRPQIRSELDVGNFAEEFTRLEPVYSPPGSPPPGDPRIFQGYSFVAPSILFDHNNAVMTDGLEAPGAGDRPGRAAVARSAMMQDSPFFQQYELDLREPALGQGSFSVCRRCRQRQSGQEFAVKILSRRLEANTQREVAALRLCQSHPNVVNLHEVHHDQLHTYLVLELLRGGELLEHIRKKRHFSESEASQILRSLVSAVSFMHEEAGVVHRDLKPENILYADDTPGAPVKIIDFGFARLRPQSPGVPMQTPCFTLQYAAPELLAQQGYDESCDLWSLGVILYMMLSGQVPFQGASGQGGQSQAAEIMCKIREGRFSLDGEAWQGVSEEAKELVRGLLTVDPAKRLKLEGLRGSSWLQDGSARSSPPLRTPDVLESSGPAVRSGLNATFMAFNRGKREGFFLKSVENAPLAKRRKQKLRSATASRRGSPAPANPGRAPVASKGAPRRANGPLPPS
Description: as §1, §2, §3, §4, §5, §6

[7] = biological target: T1, FLT3 (Homo sapiens, UniProt P36888)
T1 sequence (P36888 27-993): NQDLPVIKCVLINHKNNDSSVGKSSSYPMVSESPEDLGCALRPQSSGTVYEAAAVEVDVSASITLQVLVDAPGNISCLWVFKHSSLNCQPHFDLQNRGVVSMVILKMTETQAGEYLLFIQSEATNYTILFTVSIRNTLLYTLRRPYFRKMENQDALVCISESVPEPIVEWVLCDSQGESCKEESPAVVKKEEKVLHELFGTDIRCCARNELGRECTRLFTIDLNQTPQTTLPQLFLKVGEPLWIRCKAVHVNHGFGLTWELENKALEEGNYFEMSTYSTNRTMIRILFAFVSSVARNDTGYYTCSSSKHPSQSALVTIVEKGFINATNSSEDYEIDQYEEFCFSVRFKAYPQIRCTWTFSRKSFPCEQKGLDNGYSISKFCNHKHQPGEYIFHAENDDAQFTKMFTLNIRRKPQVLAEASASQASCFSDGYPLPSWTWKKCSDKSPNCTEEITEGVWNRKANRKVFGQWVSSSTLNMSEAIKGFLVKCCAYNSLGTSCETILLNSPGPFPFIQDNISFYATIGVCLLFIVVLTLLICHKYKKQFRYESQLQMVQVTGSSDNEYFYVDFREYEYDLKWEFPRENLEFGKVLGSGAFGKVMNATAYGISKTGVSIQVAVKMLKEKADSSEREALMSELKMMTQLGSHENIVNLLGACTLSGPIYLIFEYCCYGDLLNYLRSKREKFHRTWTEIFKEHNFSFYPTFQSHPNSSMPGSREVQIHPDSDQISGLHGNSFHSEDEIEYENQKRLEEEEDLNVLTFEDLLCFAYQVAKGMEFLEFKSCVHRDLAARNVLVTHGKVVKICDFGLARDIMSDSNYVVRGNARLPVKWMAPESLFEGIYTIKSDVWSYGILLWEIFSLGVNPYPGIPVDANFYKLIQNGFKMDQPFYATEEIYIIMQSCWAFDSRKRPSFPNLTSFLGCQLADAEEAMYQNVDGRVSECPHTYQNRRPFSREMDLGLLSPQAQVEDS
Description: as §1, §2, §3, §4, §5, §6

[8] = biological target: PTK2 (FAK) (Homo sapiens, UniProt Q05397)
Description: as §1, §2, §3, §4, §5, §6

[9] = biological target: TEK (Tie2) (Homo sapiens, UniProt Q02763)
TEK (Tie2), sequence (Q02763 23-1124): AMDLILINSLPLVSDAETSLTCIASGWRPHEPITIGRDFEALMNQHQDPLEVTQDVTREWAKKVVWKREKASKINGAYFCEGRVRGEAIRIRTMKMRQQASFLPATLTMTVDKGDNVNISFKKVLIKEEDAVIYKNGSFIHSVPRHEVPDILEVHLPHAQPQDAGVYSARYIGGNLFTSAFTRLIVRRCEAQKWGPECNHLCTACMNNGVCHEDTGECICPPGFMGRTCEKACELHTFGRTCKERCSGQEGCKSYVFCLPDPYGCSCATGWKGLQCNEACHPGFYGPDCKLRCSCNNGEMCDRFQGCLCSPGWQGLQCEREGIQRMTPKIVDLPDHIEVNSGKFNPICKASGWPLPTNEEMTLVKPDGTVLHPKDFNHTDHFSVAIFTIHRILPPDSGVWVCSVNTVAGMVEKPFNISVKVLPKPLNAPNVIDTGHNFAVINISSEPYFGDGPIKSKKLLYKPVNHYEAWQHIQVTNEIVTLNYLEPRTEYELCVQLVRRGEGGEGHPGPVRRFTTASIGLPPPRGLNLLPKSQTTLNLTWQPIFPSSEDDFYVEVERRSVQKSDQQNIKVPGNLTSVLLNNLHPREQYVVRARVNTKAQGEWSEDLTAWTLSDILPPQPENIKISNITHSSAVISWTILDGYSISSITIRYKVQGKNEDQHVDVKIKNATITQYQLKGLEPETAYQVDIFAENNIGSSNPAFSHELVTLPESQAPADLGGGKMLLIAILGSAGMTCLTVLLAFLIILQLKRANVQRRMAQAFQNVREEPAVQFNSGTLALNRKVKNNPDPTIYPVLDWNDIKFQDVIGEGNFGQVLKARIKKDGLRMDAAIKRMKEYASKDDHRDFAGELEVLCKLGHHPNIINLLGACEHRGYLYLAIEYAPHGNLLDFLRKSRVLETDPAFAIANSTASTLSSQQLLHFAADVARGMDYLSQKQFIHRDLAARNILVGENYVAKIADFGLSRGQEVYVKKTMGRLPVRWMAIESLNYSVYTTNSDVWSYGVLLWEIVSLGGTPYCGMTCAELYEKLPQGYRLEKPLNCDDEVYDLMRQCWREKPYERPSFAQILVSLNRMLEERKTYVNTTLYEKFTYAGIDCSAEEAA
Description: as §1, §2, §3, §4, §5, §6

[10] = biological target: LCK (Homo sapiens, UniProt P06239)
Description: as §1, §2, §3, §4, §5, §6

[11] = biological target: JAK2 (Homo sapiens, UniProt O60674)
JAK2, sequence (O60674 whole entry): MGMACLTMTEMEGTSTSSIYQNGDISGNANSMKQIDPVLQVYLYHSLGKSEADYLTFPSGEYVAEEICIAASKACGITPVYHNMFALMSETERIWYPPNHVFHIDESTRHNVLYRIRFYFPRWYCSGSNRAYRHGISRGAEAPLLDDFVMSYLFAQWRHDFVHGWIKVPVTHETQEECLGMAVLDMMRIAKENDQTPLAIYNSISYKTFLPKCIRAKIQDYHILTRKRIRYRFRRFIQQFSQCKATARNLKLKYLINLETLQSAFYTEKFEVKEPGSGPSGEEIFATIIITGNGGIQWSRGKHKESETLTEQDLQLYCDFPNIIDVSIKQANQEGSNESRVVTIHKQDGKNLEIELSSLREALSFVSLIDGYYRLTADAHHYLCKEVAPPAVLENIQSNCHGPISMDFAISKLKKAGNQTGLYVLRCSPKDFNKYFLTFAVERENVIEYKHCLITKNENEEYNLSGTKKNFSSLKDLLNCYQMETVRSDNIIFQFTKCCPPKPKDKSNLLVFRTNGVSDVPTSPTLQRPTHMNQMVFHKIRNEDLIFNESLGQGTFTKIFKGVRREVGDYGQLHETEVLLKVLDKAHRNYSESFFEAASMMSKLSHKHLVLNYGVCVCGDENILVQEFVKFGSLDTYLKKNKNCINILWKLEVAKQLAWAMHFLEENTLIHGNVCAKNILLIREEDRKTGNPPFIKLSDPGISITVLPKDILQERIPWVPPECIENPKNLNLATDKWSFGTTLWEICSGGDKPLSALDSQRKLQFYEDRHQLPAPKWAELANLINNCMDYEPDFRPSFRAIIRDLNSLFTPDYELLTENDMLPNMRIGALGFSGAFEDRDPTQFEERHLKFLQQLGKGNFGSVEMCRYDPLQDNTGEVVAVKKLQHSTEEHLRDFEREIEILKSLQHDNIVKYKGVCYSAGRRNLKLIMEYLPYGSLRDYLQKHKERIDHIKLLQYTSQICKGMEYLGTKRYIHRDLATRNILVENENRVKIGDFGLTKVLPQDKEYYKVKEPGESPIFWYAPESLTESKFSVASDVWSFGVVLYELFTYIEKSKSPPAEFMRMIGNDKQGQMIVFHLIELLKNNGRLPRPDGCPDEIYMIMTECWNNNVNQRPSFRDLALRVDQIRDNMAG
Description: as §1, §2, §3, §4, §5, §6

[12] = biological target: GSK3B (GSK3 beta) (Homo sapiens, UniProt P49841)
Description: as §1, §2, §3, §4, §5, §6

[13] = biological target: DNA-PK (Homo sapiens, UniProt P78527)
Description: as §1, §2, §3, §4, §5, §6

[14] = biological target: T2, PRKD1 (PKC mu) (Homo sapiens, UniProt Q15139)
T2 sequence (Q15139 1-912): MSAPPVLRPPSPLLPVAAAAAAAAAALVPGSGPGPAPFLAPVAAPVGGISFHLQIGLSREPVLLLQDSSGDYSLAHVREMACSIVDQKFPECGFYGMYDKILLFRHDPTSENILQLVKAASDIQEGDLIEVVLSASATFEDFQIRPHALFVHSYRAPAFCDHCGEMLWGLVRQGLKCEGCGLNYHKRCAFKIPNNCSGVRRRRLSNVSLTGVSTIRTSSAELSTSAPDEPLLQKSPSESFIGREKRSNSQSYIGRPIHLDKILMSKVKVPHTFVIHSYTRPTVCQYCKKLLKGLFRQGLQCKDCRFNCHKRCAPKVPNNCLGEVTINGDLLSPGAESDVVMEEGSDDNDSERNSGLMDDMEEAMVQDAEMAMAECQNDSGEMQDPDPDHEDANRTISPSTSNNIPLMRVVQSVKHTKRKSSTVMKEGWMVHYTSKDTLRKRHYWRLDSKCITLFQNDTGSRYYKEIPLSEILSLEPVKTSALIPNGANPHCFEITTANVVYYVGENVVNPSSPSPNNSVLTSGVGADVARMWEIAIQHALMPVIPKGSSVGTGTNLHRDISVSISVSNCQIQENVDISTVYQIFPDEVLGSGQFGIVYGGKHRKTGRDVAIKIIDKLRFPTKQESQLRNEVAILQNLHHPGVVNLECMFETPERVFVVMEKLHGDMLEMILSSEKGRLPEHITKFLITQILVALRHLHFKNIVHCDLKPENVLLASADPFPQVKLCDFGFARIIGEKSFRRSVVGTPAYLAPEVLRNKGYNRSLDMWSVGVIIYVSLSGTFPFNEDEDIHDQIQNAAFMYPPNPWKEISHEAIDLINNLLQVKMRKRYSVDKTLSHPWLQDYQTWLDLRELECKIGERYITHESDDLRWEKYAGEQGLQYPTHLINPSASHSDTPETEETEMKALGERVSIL
Description: as §1, §2, §3, §4, §5, §6

[15] = biological target: MELK (Homo sapiens, UniProt Q14680)
MELK, sequence (Q14680 whole entry): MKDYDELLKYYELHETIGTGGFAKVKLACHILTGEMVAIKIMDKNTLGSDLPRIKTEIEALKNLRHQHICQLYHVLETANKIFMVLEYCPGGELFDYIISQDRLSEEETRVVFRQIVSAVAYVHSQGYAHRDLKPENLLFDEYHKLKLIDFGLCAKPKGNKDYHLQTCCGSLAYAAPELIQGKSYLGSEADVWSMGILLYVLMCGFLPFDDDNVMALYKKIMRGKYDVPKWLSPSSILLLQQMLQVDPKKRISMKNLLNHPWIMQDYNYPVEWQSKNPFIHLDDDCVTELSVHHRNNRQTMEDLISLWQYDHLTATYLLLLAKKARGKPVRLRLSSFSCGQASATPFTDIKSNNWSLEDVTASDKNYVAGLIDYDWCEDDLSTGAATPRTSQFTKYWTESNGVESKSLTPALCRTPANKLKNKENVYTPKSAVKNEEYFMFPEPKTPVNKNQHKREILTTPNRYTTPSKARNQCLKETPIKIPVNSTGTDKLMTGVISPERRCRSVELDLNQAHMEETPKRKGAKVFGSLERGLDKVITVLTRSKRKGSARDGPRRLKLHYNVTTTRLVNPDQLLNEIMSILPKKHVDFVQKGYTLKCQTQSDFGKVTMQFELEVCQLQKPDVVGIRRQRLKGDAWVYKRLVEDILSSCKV
Description: as §1, §2, §3, §4, §5, §6

[16] = biological target: MARK2 (Homo sapiens, UniProt Q7KZI7)
MARK2, sequence (Q7KZI7 whole entry): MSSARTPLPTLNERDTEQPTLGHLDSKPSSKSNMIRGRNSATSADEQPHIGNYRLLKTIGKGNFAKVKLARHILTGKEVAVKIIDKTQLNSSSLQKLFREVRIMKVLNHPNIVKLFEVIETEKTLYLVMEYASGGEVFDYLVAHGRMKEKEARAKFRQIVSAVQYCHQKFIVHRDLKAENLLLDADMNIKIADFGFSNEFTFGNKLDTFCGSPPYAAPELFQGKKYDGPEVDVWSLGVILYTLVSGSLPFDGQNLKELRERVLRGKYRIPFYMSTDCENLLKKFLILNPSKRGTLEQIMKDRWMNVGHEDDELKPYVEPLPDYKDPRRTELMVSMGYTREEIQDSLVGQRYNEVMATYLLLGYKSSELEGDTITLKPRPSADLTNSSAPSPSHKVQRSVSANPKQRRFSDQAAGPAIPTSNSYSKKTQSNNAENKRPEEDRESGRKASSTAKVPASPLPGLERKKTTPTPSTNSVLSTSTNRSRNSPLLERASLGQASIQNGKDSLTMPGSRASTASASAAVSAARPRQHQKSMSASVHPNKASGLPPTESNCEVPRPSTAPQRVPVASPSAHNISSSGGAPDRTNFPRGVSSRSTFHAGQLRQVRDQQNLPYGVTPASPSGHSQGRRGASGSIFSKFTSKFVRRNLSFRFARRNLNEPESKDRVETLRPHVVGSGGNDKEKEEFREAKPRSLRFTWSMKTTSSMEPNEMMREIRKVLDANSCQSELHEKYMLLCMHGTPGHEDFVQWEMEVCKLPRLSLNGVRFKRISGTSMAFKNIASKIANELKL
Description: as §1, §2, §3, §4, §5, §6

MAPKAPK2, sequence (P49137 whole entry): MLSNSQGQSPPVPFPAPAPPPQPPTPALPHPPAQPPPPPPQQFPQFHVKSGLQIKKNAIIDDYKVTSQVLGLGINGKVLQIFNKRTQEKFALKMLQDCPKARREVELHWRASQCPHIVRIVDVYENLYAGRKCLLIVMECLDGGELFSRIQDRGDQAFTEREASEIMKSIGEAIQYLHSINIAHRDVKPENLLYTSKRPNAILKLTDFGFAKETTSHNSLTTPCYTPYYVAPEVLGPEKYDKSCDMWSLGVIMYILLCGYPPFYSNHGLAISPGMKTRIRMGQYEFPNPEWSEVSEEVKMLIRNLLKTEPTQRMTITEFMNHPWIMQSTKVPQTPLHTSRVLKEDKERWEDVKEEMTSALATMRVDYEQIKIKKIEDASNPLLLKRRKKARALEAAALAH

SMILES | inhibition at 1 µM [1] [%] | inhibition at 1 µM [2] [%] | inhibition at 1 µM [3] [%] | inhibition at 1 µM [4] [%] | inhibition at 1 µM [5] [%] | inhibition at 1 µM [6] [%] | inhibition at 1 µM [7] [%] | inhibition at 1 µM [8] [%] | inhibition at 1 µM [9] [%] | inhibition at 1 µM [10] [%] | inhibition at 1 µM [11] [%] | inhibition at 1 µM [12] [%] | inhibition at 1 µM [13] [%] | inhibition at 1 µM [14] [%] | inhibition at 1 µM [15] [%] | inhibition at 1 µM [16] [%]
C=CC(=O)Nc1ccc2c(c1)n(C1CCN(Cc3ccc(-c4nc5cc[nH]c(=O)c5cc4-c4ccccc4)cc3)CC1)c(=O)n2C [24b] | 29 | 5 | 0 | 2 | 7 | 9 | 7 | -20 | 2 | -3 | 2 | 22 | 7 | 13 | 48 | 4
C=CC(=O)Nc1cccc(C(=O)NC2CCN(Cc3ccc(-c4nc5cc[nH]c(=O)c5cc4-c4ccccc4)cc3)CC2)c1 [30b] | 31 | 6 | 8 | 10 | 11 | 11 | 14 | -4 | 6 | 8 | 16 | 29 | 8 | 6 | 52 | 4
C=CC(=O)Nc1cc(NC(=O)NC2CCN(Cc3ccc(-c4nc5cc[nH]c(=O)c5cc4-c4ccccc4)cc3)CC2)ccc1Cl [compound 27] | 33 | 1 | 1 | -4 | 6 | 16 | 14 | -1 | 5 | 4 | 0 | 18 | 5 | 17 | 83 | 6
